# Results published in publication PMC8217813, “Bridging Computational Vaccinology and Vaccine Development Through Systematic Identification, Characterization, and Downselection of Conserved and Variable Circumsporozoite Protein CD4 T Cell Epitopes From Diverse Plasmodium falciparum Strains” (Frontiers in Immunology, 2021).
# Where two headings read alike, the source gives them in different places. Peptide text beside a SMILES is read from it.
# Tests used:
# [1] = molecular target: T1, HLA A*0201 (Homo sapiens, UniProt P04439, D140Y/D185E/D98H/E176V/E277Q/G131W/G231S/I119V/I121R/I166T/I218V/L300P/L318F/N151K/N90K/P208A/P217A/Q86G/Q94H/R138H/R169H/T345S); test: biochemical; format: binding
# T1 construct: Pure Protein, LLC (ran the assay)
# [2] = molecular target: T2, HLA B*0702 (Homo sapiens, UniProt P01889); test: biochemical; format: binding; details: allele B0702; cell-free competition with fluorescently labeled control peptide, fluorescence polarization at 72 hours
# T2 construct: Pure Protein, LLC (ran the assay)
# [3] = molecular target: T3, HLA A*0301 (Homo sapiens, UniProt P04439); test: In vitro class I HLA binding competition assay (fluorescence polarization); details: allele A0301; cell-free competition with fluorescently labeled control peptide, fluorescence polarization at 72 hours
# T3 construct: Pure Protein, LLC (ran the assay)
# [4] = allele A0201, cell-free competition with fluorescently labeled control peptide, fluorescence polarization at 72 hours, read-out: IC50
SMILES,IC50 [1] [µM],"IC50 [1, 4] [µM]",IC50 (nM) [2],IC50 (nM) [3]
CC[C@H](C)[C@H](NC(=O)[C@H](CCCCN)NC(=O)[C@H](CCCCN)NC(=O)[C@H](CC(C)C)NC(=O)[C@@H](N)Cc1ccc(O)cc1)C(=O)N[C@@H](CCC(N)=O)C(=O)N[C@@H](Cc1ccc(O)cc1)C(=O)N[C@@H](CO)C(=O)N[C@@H](CC(C)C)C(=O)O [Cluster 319_ICS7] (H-YLKKIQYSL-OH),2.58,,,
CC[C@H](C)[C@H](NC(=O)CNC(=O)[C@H](CC(N)=O)NC(=O)CNC(=O)[C@H](CS)NC(=O)[C@@H](NC(=O)[C@@H](NC(=O)[C@@H](N)CO)C(C)C)[C@@H](C)O)C(=O)N[C@@H](CCC(N)=O)C(=O)N[C@H](C(=O)O)C(C)C [Cluster 335_3D7] (H-SVTCGNGIQV-OH),,489,Non-Binder,
CC[C@H](C)[C@H](NC(=O)[C@H](CO)NC(=O)[C@H](CO)NC(=O)[C@H](CC(N)=O)NC(=O)[C@@H](NC(=O)[C@@H](NC(=O)[C@H](CC(N)=O)NC(=O)[C@H](Cc1ccccc1)NC(=O)[C@@H](NC(=O)[C@@H](N)CO)C(C)C)C(C)C)C(C)C)C(=O)O [Cluster 376_3D7] (H-SVFNVVNSSI-OH),,342,Non-Binder,Non-Binder
